Test results reported in patent US10385057B2, “Pyrazole compounds and methods of making and using same” (Lundbeck La Jolla Research Center, Inc., priority 2015, dated 2019).

Legend:
FAAH [1] = biological target: T1, FAAH (Mus musculus, UniProt O08914); test: In vitro competitive activity-based protein profiling, mouse FAAH; type: biochemical; conditions: for inhibition at 1 µM: read-out: FAAH % inh. 1 μM (mouse)
T1 construct: mouse brain membrane fraction or cell lysates for mouse assays; from tissue
T1 sequence (O08914 1-579): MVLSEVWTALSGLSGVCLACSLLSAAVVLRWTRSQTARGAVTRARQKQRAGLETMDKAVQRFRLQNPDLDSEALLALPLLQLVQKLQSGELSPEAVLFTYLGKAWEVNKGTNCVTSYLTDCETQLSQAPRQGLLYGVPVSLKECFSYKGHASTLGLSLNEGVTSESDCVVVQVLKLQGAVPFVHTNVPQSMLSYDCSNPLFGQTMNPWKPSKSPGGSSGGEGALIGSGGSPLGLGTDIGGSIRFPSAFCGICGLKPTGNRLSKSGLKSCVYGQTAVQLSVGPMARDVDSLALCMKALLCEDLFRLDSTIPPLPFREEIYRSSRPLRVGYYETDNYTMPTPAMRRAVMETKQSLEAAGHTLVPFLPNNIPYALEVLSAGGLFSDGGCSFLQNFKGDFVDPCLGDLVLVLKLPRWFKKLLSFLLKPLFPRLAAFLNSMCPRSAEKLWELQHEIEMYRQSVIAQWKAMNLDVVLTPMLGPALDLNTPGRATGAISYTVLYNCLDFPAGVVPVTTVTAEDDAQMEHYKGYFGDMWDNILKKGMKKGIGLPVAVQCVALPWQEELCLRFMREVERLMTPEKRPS
Summary of the method: (§1)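 Mouse brain membranes or cell lysates (mouse) and human prefrontal cortex or cell membrane fractions (human), 1.0 mg/mL protein, preincubated with inhibitor 30 min at 37 °C, then FP-Rh or HT-01 probe 30 min at 37 °C. SDS-PAGE; MAGL and FAAH activity from in-gel fluorescence band intensity.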

MAGL [2] = biological target: T2, MAGL (Mus musculus, UniProt O35678); test: In vitro competitive activity-based protein profiling, mouse MAGL; type: biochemical; conditions: for inhibition at 1 µM: read-out: MAGL % inh. 1 μM (mouse)
T2 construct: mouse brain membrane fraction or cell lysates for mouse assays; from tissue
T2 sequence (O35678 1-303): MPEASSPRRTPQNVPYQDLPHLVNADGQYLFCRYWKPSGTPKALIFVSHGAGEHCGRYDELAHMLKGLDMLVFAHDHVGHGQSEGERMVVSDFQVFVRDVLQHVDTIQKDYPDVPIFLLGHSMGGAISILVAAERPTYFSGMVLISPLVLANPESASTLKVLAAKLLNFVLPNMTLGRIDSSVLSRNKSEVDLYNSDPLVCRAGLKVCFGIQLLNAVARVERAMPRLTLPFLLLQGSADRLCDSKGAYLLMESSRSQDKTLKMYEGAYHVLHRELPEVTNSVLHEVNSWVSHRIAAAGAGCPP
Summary of the method: as §1

MAGL [3] = biological target: T3, MAGL (Homo sapiens, UniProt Q99685); test: In vitro competitive activity-based protein profiling, human MAGL; type: biochemical; conditions: for inhibition at 10 µM: read-out: MAGL % inh. 10 μM (human); for inhibition at 1 µM: read-out: MAGL % inh. 1 μM (human)
T3 construct: human prefrontal cortex or cell membrane fractions for human assays; from tissue
T3 sequence (Q99685 1-303): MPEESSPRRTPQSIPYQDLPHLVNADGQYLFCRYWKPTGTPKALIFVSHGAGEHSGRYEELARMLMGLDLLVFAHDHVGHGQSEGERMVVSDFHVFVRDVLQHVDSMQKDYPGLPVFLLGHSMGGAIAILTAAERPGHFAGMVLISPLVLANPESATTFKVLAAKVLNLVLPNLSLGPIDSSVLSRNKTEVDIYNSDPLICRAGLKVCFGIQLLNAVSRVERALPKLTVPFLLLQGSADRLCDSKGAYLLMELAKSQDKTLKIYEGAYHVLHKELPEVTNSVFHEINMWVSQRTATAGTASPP
Procedure: (§2) In Vitro Competitive Activity-Based Protein Profiling.
(§3) Proteomes (mouse brain membrane fraction or cell lysates for mouse assays; human prefrontal cortex or cell membrane fractions for human assays) (50 μL, 1.0 mg/mL total protein concentration) were preincubated with varying concentrations of inhibitors at 37° C. After 30 min, FP-Rh or HT-01 (1.0 μL, 50 μM in DMSO) was added and the mixture was incubated for another 30 min at 37° C. Reactions were quenched with SDS loading buffer (15 μL—4×) and run on SDS-PAGE. Following gel imaging, serine hydrolase activity was determined by measuring fluorescent intensity of gel bands corresponding to MAGL and FAAH using ImageJ 1.43u software.

FAAH [4] = biological target: T4, FAAH (Homo sapiens, UniProt O00519); test: In vitro competitive activity-based protein profiling, human FAAH; type: biochemical; conditions: for inhibition at 10 µM: read-out: FAAH % inh. 10 μM (human); for inhibition at 1 µM: read-out: FAAH % inh. 1 μM (human)
T4 construct: human prefrontal cortex or cell membrane fractions for human assays; from tissue
T4 sequence (O00519 1-579): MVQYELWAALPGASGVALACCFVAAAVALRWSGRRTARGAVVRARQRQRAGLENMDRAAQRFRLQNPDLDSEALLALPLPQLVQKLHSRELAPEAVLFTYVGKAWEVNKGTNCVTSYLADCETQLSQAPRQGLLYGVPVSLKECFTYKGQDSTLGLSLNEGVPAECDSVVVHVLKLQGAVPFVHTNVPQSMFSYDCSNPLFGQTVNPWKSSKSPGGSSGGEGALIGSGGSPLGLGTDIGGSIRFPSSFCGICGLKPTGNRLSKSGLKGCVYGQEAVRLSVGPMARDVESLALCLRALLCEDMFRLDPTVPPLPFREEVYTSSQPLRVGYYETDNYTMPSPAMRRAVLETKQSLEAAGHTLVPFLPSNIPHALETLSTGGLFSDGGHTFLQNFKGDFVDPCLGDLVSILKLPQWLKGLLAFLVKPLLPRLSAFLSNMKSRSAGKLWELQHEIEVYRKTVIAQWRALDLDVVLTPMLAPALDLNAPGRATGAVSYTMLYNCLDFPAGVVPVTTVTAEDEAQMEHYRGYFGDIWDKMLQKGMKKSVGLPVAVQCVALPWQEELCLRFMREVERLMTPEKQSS
Procedure: as §2, §3

MAGL [5] = biological target: T2, MAGL; test: Mouse brain proteomes from inhibitor treated mice, MAGL; type: in vivo; conditions: oral gavage, brain 4 h after administration, read-out: MAGL % inh. 5 mg/kg (mouse)
Procedure: Preparation of Mouse Brain Proteomes from Inhibitor Treated Mice.
Inhibitors were administered to wild-type C57Bl/6J by oral gavage in a vehicle of polyethylene glycol. Each animal was sacrificed 4 h following administration and brain proteomes were prepared and analyzed according to previously established methods (See Niphakis, M. J., et al. (2011) ACS Chem. Neurosci. and Long, J. Z., et al. Nat. Chem. Biol. 5:37-44).

| inhibition at 1 µM (FAAH [1]) [%] | inhibition at 1 µM (MAGL [2]) [%] | inhibition at 10 µM (MAGL [3]) [%] | inhibition at 10 µM (FAAH [4]) [%] | inhibition at 1 µM (MAGL [3]) [%] | inhibition at 1 µM (FAAH [4]) [%] | IC50 (FAAH [1]) [µM] | IC50 (MAGL [2]) [µM] | inhibition at 5 mg/kg (MAGL [5]) [%] | SMILES |
| --- | --- | --- | --- | --- | --- | --- | --- | --- | --- |
| ≥ 75 | 0 to 25 | ≥ 75 | 25 to 50 | – | – | – | – | – | O=C(O)c1cnn(C(=O)N2CCC3(CCN(Cc4cccc(Oc5ccccc5)c4)C3)C2)c1 (stereo not shown) [Example 185, 1-(7-(3-phenoxybenzyl)-2,7-diazaspiro[4.4]nonane-2-carbonyl)-1H-pyrazole-4-carboxylic acid] |
| ≥ 75 | 0 to 25 | – | – | ≥ 75 | ≥ 75 | – | – | – | NC(=O)c1cnn(C(=O)N2CCC3(CCN(Cc4cc(N5CCOCC5)cc(C(F)(F)F)c4)C3)C2)c1 (stereo not shown) [Example 210, 1-(7-(3-morpholino-5-(trifluoromethyl)benzyl)-2,7-diazaspiro[4.4]nonane-2-carbonyl)-1H-pyrazole-4-carboxamide] |
| ≥ 75 | 0 to 25 | ≥ 75 | ≥ 75 | – | – | – | – | – | O=C(c1cnn(C(=O)N2CC3CN(Cc4cccc(Oc5ccc(Cl)cc5)c4)CC3C2)c1)N1CCCC1 (stereo not shown) [Example 190, (5-(3-(4-chlorophenoxy)benzyl)hexahydropyrrolo[3,4-c]pyrrol-2(1H)-yl)(4-(pyrrolidine-1-carbonyl)-1H-pyrazol-1-yl)methanone] |
| ≥ 75 | 0 to 25 | ≥ 75 | ≥ 75 | 0 to 25 | ≥ 75 | – | – | – | O=C(O)c1cnn(C(=O)N2CC3CN(Cc4cc(Cl)ccc4C(F)(F)F)CC3C2)c1 (stereo not shown) [Example 196, 1-(5-(5-chloro-2-(trifluoromethyl)benzyl)octahydropyrrolo[3,4-c]pyrrole-2-carbonyl)-1H-pyrazole-4-carboxylic acid] |
| ≥ 75 | 0 to 25 | ≥ 75 | 0 to 25 | – | – | – | – | – | O=C(O)c1cnn(C(=O)N2CC3CN(Cc4ccc(Cl)cc4)CC3C2)c1 (stereo not shown) [Example 46, 1-(5-(4-chlorobenzyl)octahydropyrrolo[3,4-c]pyrrole-2-carbonyl)-1H-pyrazole-4-carboxylic acid] |
| ≥ 75 | 0 to 25 | ≥ 75 | 50 to 75 | 0 to 25 | ≥ 75 | – | – | – | O=C(O)c1cnn(C(=O)N2CC3CN(Cc4cc(N5CCCC5)cc(C(F)(F)F)c4)CC3C2)c1 (stereo not shown) [Example 198, 1-(5-(3-(pyrrolidin-1-yl)-5-(trifluoromethyl)benzyl)octahydropyrrolo[3,4-c]pyrrole-2-carbonyl)-1H-pyrazole-4-carboxylic acid] |
| ≥ 75 | 0 to 25 | ≥ 75 | 50 to 75 | – | – | – | – | – | O=C(O)c1cnn(C(=O)N2CC3CN(Cc4ccc(C(F)(F)F)cc4)CC3C2)c1 (stereo not shown) [Example 47, 1-(5-(4-(trifluoromethyl)benzyl)octahydropyrrolo[3,4-c]pyrrole-2-carbonyl)-1H-pyrazole-4-carboxylic acid] |
| ≥ 75 | 0 to 25 | ≥ 75 | 0 to 25 | – | – | – | – | – | O=C(O)c1cnn(C(=O)N2CCC3(CCN(Cc4ccc(Cl)cc4)C3)C2)c1 (stereo not shown) [Example 48, 1-(7-(4-chlorobenzyl)-2,7-diazaspiro[4.4]nonane-2-carbonyl)-1H-pyrazole-4-carboxylic acid] |
| ≥ 75 | ≥ 75 | – | – | – | – | ≤ 0.1 | 0.1 to 1 | ≥ 75 | NC(=O)c1cnn(C(=O)N2CCC3(CCN(Cc4ccc(N5CCOCC5)cc4C(F)(F)F)C3)C2)c1 (stereo not shown) [Example 45, 1-(7-(4-morpholino-2-(trifluoromethyl)benzyl)-2,7-diazaspiro[4.4]nonane-2-carbonyl)-1H-pyrazole-4-carboxamide] |
| ≥ 75 | ≥ 75 | – | – | – | – | ≤ 0.1 | 0.1 to 1 | 25 to 50 | O=C(N1CC2CN(Cc3ccccc3Cl)CC2C1)n1cc(Cl)cn1 (stereo not shown) [Example 116, (4-chloro-1H-pyrazol-1-yl)(5-(2-chlorobenzyl)hexahydropyrrolo[3,4-c]pyrrol-2(1H)-yl)methanone] |
| ≥ 75 | ≥ 75 | – | – | – | – | – | – | ≥ 75 | NC(=O)c1cnn(C(=O)N2CCC3(CCN(Cc4cc(Cl)ccc4Cl)C3)C2)c1 (stereo not shown) [Example 39, 1-(7-(2,5-dichlorobenzyl)-2,7-diazaspiro[4.4]nonane-2-carbonyl)-1H-pyrazole-4-carboxamide] |
| ≥ 75 | ≥ 75 | – | – | – | – | ≤ 0.1 | ≤ 0.1 | ≥ 75 | O=C(N1CC2CN(Cc3ccc(Cl)c(Cl)c3)CC2C1)n1cc(Cl)cn1 (stereo not shown) [Example 119, (4-chloro-1H-pyrazol-1-yl)(5-(3,4-dichlorobenzyl)hexahydropyrrolo[3,4-c]pyrrol-2(1H)-yl)methanone] |
| ≥ 75 | ≥ 75 | – | – | – | – | ≤ 0.1 | ≤ 0.1 | ≥ 75 | CN(Cc1ccc(C(F)(F)F)cc1)[C@@H]1C[C@@H]2CN(C(=O)n3cc(C(N)=O)cn3)C[C@@H]2C1 [Example 55, 1-(cis-5-(methyl(4-(trifluoromethyl)benzyl)amino)octahydrocyclopenta[c]pyrrole-2-carbonyl)-1H-pyrazole-4-carboxamide] |
| ≥ 75 | ≥ 75 | – | – | – | – | ≤ 0.1 | 0.1 to 1 | ≥ 75 | CN(Cc1ccccc1Cl)[C@@H]1C[C@@H]2CN(C(=O)n3cc(C(N)=O)cn3)C[C@@H]2C1 [Example 88, 1-(cis-5-((2-chlorobenzyl)(methyl)amino)octahydrocyclopenta[c]pyrrole-2-carbonyl)-1H-pyrazole-4-carboxamide] |
